System: microorganisms
Assay: Bactericidal testing of toothpaste final base made with contaminated PCC slurry (plate count)
Conditions: final toothpaste base with previously contaminated PCC slurry, plated on MLA, 30° C.
Method: In a stainless steel bucket, water and humectant was first added and stirred using an overhead stirrer (EUROSTAR 200, IKA, North Carolina, USA) equipped with a cowles disperser. Mixing was started at 500 rpm for 1 minute. Gum and salts (buffering agents, sweetener, fluoride) were added next and the resulting solution was mixed at 1,000 rpm for 20 minutes to obtain a gel phase.
A fraction of the gel phase sample was transferred to a new stainless steel bucket. Using an overhead stirrer (EUROSTAR 200, IKA) equipped with a 4-bladed propeller stirrer, mixing was performed at 750 rpm for 1 minute. Next, to the mixture was added water, PCC slurry (previously contaminated for the study purpose), surfactant, and other ingredients (benzyl alcohol/caprylyl glycol or phenethyl alcohol/caprylyl glycol) and mixed for 15 minutes to obtain the final base.
Sample preparation was made by mixing 10 grams of the final base (see Example 1) with 90 mL of diluent (TAT broth (catalog #298410, BD) supplemented with 0.3% NaCl and 4% Tween) to achieve a 1:10 dilution. Serial dilutions of 10^−1 to 10^−6 were made in neutralizing broth (TAT supplemented with 0.3% NaCl), allowed to incubate for 0, 2, 4, 6, 24 and 48 hours, and plated in 15-20 mL of melted Modified Letheen Agar (MLA). Plates were swirled to allow complete dispersion and allowed to solidify. Solidified plates were then inverted and incubated at 30° C. for at least 48 hours. Colonies were counted using a Quebec colony counter (Phoenix Luferco, Brazil). Table 2 presents the study results, showing numbers of microorganisms per gram of product (CFU/) at different time points.

Structure (SMILES)	numbers of microorganisms per gram of product, 0 hr	numbers of microorganisms per gram of product, 2 hr	numbers of microorganisms per gram of product, 4 hr	numbers of microorganisms per gram of product, 6 hr	numbers of microorganisms per gram of product, 24 hr	numbers of microorganisms per gram of product, 48 hr [CFU/]
OCc1ccccc1 [Benzyl alcohol (0.30%), Benzyl alcohol]	13,300 CFU/	18,250 CFU/	13,000 CFU/	8,000 CFU/	3,650 CFU/	125
CCCCCCC(O)CO (stereo not drawn) [Caprylyl glycol (0.20%), Caprylyl glycol]	13,300 CFU/	14,000 CFU/	1,200 CFU/	2,100 CFU/	435 CFU/	80
